Assay results taken from US20260078103A1, “ISOQUINOLONES AS PI3K INHIBITORS” (OnKure, Inc., priority 2022, published 2026).
Like-named read-outs stand apart in the source and are kept apart here.

Assays:
Format in all cases: cell-based
[1] = test system: phosphorylation of AKT (pAKT) in SKBR3 cells express WT PI3Ka; assay: In vitro cell pAKT (Ser473) HTRF, SKBR3 cells; conditions: cellular pAKT
Method in brief: (§1)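 pAKT (Ser473) was quantified by HTRF in lysates from cells exposed 6 h at 37 °C to 10-point compound series, with T47D in insulin-supplemented RPMI/10% FBS and SKBR3 in McCoy's 5a/10% FBS. Controls: 0.1% DMSO (high) and 10 uM alpelisib (low). IC50 from sigmoidal curve fitting.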

[2] = test system: phosphorylation of AKT (pAKT) in T47D cells expressing mutant PI3Ka (H1047R); assay: In vitro cell pAKT (Ser473) HTRF, T47D cells; conditions: cellular pAKT, T47D cells, mutant PI3Ka (H1047R), 6 hours, read-out: Avg T-47D IC50
Method in brief: as §1

[3] = test system: T47D cells expressing mutant PI3Ka (H1047R); assay: In vitro cell proliferation, T47D cells (CellTiter-Glo); conditions: inhibition of proliferation, read-out: Avg T-47D EC50
Method in brief: (§2)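 T47D cells in RPMI/10% FBS/insulin (0.2 units/mL) or SKBR3 in McCoys 5a/10% FBS, 1,500 cells/well, grown 72 h at 37 °C with 10-point compound dilutions. CellTiter-Glo luminescence; % inhibition normalised to 0.1% DMSO and 10 uM Alpelisib, EC50 from four-parameter curve fit.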

[4] = test system: SKBR3 cells express WT PI3Ka; assay: In vitro cell proliferation, SKBR3 cells (CellTiter-Glo); conditions: inhibition of proliferation
Method in brief: as §2

| Compound | IC50 ([1]; Homo sapiens, SK-BR-3, 6 h) [nM] | IC50 ([2]; Homo sapiens, T47D, 6 h) [nM] | EC50 ([3]; Homo sapiens, T47D, 72 h) [nM] | EC50 ([4]; Homo sapiens, SK-BR-3, 72 h) [nM] | IC50 ([1]; 6 hours) [nM] | IC50 [2] [nM] | EC50 ([3]; 72 hours) [nM] | EC50 ([4]; 72 hours) [nM] |
| --- | --- | --- | --- | --- | --- | --- | --- | --- |
| CC(Nc1cccc(F)c1C(=O)O)c1cc(F)cc2c(=O)n(C)c(-c3cnc(OC4CC(F)C4)c(F)c3)cc12 (stereo not drawn) [Example 388] |  |  |  |  | > 15000 | 1 to 500 | 1 to 500 | > 15000 |
| Cc1cc([C@@H](C)Nc2ccccc2C(=O)O)c2cc(N3CCN(c4cccc(C)n4)CC3)n(C)c(=O)c2c1 [Example 196] |  |  |  |  | 2000 to 15000 | 1 to 500 | 1 to 500 | > 15000 |
| Cc1cc(C(C)Nc2ccccc2C(=O)O)c2cc(N3CCN(CC(F)(F)F)CC3)n(C)c(=O)c2c1 (stereo not drawn) [Example 61] |  |  |  |  | > 15000 | 1 to 500 | 500 to 2000 | > 15000 |
| Cc1cc(C(C)Nc2ccccc2C(=O)O)c2cc(N3CCN(C(C)C(F)(F)F)CC3)n(C)c(=O)c2c1 (mixture of isomers) [Example 271] |  |  |  |  | > 15000 | 1 to 500 | 1 to 500 | 2000 to 15000 |
| Cc1cc([C@@H](C)Nc2ccccc2C(=O)O)c2cc(-c3cc(F)c4nn(C)cc4c3)n(C)c(=O)c2c1 [Example 365] |  |  |  |  | > 15000 | 1 to 500 | 1 to 500 | > 15000 |
| Cc1cc(C(C)Nc2ccc(Cl)nc2C(=O)O)c2cc(N3Cc4ccc(F)cc4C3)n(C)c(=O)c2c1 (single isomer, unassigned) [Example 128] |  |  |  |  | 2000 to 15000 | 1 to 500 | 1 to 500 | 2000 to 15000 |
| Cc1ncncc1N1CCN(c2cc3c([C@@H](C)Nc4cccc(F)c4C(=O)O)cc(F)cc3c(=O)n2C)CC1 [Example 397] |  |  |  |  | > 15000 | 500 to 2000 | 1 to 500 | > 15000 |
| Cc1cc(C(C)Nc2ccccc2C(=O)O)c2cc(N3Cc4cccc(C(F)(F)F)c4C3)n(C)c(=O)c2c1 (single isomer, unassigned) [Example 93] |  |  |  |  | > 15000 | > 15000 | 2000 to 15000 | > 15000 |
| Cc1ncc(-c2cc3c([C@@H](C)Nc4ccccc4C(=O)O)cc(F)cc3c(=O)n2C)s1 [Example 501] | > 15000 | 1 to 500 | 1 to 500 | > 15000 |  |  |  |  |
| Cc1cc(C(C)Nc2ccccc2C(=O)O)c2cc(-c3cc4cc(F)ccc4[nH]3)n(C)c(=O)c2c1 (stereo not drawn) [Example 7, 2-((1-(3-(5-fluoro-1H-indol-2-yl)-2,7-dimethyl-1-oxo-1,2-dihydroisoquinolin-5-yl)ethyl)amino)benzoic acid] | > 15000 | 500 to 2000 | 2000 to 15000 | > 15000 |  |  |  |  |
| Cc1cc([C@@H](C)Nc2ccccc2C(=O)O)c2cc(NCc3ccc(F)cc3)n(C)c(=O)c2c1 [Example 222] | > 15000 | 2000 to 15000 | 2000 to 15000 | > 15000 |  |  |  |  |
| Cc1cc(C(C)Nc2ccccc2C(=O)O)c2cc(N3CC(c4ccccc4)C3)n(C)c(=O)c2c1 (single isomer, unassigned) [Example 76] | > 15000 |  |  | > 15000 |  | > 15000 | > 15000 |  |
| Cc1cc([C@@H](C)Nc2ccccc2C(=O)O)c2cc(N3CCN(c4ccc(CF)nc4)CC3)n(C)c(=O)c2c1 [Example 381] |  |  |  |  | 2000 to 15000 | 1 to 500 | 1 to 500 | 2000 to 15000 |
| Cc1cc([C@@H](C)Nc2ccccc2C(=O)O)c2cc(-c3cnc4c(c3)CCC4(F)F)n(C)c(=O)c2c1 [Example 240] | > 15000 | 1 to 500 | 1 to 500 | > 15000 |  |  |  |  |
| Cc1cc([C@@H](C)Nc2ccccc2C(=O)O)c2cc(N3CCN(Cc4cccc(C)n4)CC3)n(C)c(=O)c2c1 [Example 176] | > 15000 | 1 to 500 | 1 to 500 | 2000 to 15000 |  |  |  |  |

Further lines, results first:

| IC50 ([1]; Homo sapiens, SK-BR-3, 6 h) [nM] | IC50 ([2]; Homo sapiens, T47D, 6 h) [nM] | EC50 ([3]; Homo sapiens, T47D, 72 h) [nM] | EC50 ([4]; Homo sapiens, SK-BR-3, 72 h) [nM] | IC50 ([1]; 6 hours) [nM] | IC50 [2] [nM] | EC50 ([3]; 72 hours) [nM] | EC50 ([4]; 72 hours) [nM] | Compound |
| --- | --- | --- | --- | --- | --- | --- | --- | --- |
| > 15000 | 1 to 500 | 1 to 500 | > 15000 |  |  |  |  | Cc1cc([C@@H](C)Nc2ccccc2C(=O)O)c2cc(-c3cnc(C(C)(C)F)c(F)c3)n(C)c(=O)c2c1 [Example 268] |
| 2000 to 15000 | 1 to 500 | 1 to 500 | 2000 to 15000 |  |  |  |  | Cc1cc([C@@H](C)Nc2ccccc2C(=O)O)c2cc(N3CCN(c4cncnc4C)CC3)n(C)c(=O)c2c1 [Example 236] |
| 2000 to 15000 | 1 to 500 | 1 to 500 | 2000 to 15000 |  |  |  |  | Cc1cc([C@@H](C)Nc2ccc(Cl)nc2C(=O)O)c2cc(N3CCN(CC(F)(F)F)CC3)n(C)c(=O)c2c1 [Example 336] |
| > 15000 | 1 to 500 | 1 to 500 | > 15000 |  |  |  |  | C[C@@H](Nc1ccccc1C(=O)O)c1cc(F)cc2c(=O)n(C)c(-c3cnc(C4(C5CC5)CC4)nc3)cc12 [Example 47, (R)-2-((1-(3-(2-([1,1′-bi(cyclopropan)]-1-yl)pyrimidin-5-yl)-7-fluoro-2-methyl-1-oxo-1,2-dihydroisoquinolin-5-yl)ethyl)amino)benzoic acid] |
| > 15000 | 2000 to 15000 | 2000 to 15000 | > 15000 |  |  |  |  | Cc1cc([C@@H](C)Nc2ccccc2C(=O)O)c2cc(N3CCn4c(nnc4C4CC4)C3)n(C)c(=O)c2c1 [Example 445] |
| 2000 to 15000 | 1 to 500 | 1 to 500 | 2000 to 15000 |  |  |  |  | Cc1cc([C@@H](C)Nc2ccc(Cl)nc2C(=O)O)c2cc(-c3ccc(-c4ccc(F)cc4)nc3)n(C)c(=O)c2c1 [Example 26, (R)-6-chloro-3-((1-(3-(6-(4-fluorophenyl)pyridin-3-yl)-2,7-dimethyl-1-oxo-1,2-dihydroisoquinolin-5-yl)ethyl)amino)picolinic acid] |
| > 15000 | 1 to 500 | 500 to 2000 | > 15000 |  |  |  |  | C[C@@H](Nc1ccccc1C(=O)O)c1cc(F)cc2c(=O)n(C)c(-c3ccc(OCC(F)(F)F)nc3)c(F)c12 [Example 547] |
| 2000 to 15000 | 1 to 500 | 1 to 500 | > 15000 |  |  |  |  | Cc1cc(C(C)Nc2ccccc2C(=O)O)c2cc(N3CC4CCC(C4)C3)n(C)c(=O)c2c1 (stereo not drawn) [Example 85] |
| > 15000 | 500 to 2000 | 500 to 2000 | > 15000 |  |  |  |  | Cc1cc([C@@H](C)Nc2ccccc2C(=O)O)c2cc(N3CCN(C=O)CC3)n(C)c(=O)c2c1 [Example 499] |
| > 15000 | 1 to 500 | 1 to 500 | > 15000 |  |  |  |  | Cc1cc([C@@H](C)Nc2ccccc2C(=O)O)c2cc(-c3cnc(CF)nc3)n(C)c(=O)c2c1 [Example 369] |
| > 15000 | 1 to 500 | 1 to 500 | 2000 to 15000 |  |  |  |  | Cc1cc([C@@H](C)Nc2ccccc2C(=O)O)c2cc(-c3cnc(COC(F)(F)F)c(F)c3)n(C)c(=O)c2c1 [Example 282] |
| > 15000 | 1 to 500 | 1 to 500 | 2000 to 15000 |  |  |  |  | Cc1cc([C@@H](C)Nc2ccccc2C(=O)O)c2cc(N3CCN(c4ccnc(C)n4)CC3)n(C)c(=O)c2c1 [Example 187] |
| > 15000 | 500 to 2000 | 500 to 2000 | > 15000 |  |  |  |  | Cc1cc(C(C)Nc2ccccc2C(=O)O)c2cc(N3CCN(C)CC3)n(C)c(=O)c2c1 (stereo not drawn) [Example 59] |
| 2000 to 15000 | 1 to 500 | 1 to 500 | 2000 to 15000 |  |  |  |  | Cc1cc([C@@H](C)Nc2ccc(Cl)nc2C(=O)O)c2cc(C3=CCN(CC(F)(F)F)CC3)n(C)c(=O)c2c1 [Example 27] |
| > 15000 | 1 to 500 | 1 to 500 | > 15000 |  |  |  |  | Cc1cc([C@@H](C)Nc2ccccc2C(=O)O)c2cc(OCC3(C)CC3)n(C)c(=O)c2c1 [Example 333] |
